Data published in PMC4979471 (Cell Death Discovery, 2015).
Where two headings read alike, the source gives them in different places.

What was measured:
Assay in all cases: Kinase selectivity, P33-radiolabeled assay
Format in all cases: biochemical
Settings in all cases: 10 μM ATP
PKCa = biological target: T1, PKCa (Homo sapiens, UniProt P17252)
T1 construct: purchased Reaction Biology Corp
Method in brief: (§1)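 Duplicate single-concentration testing used 10 μM compound. The ATP concentration was also 10 μM.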

ALK3/BMPR1A = biological target: T2, ALK3/BMPR1A (Homo sapiens, UniProt P36894)
T2 construct: purchased Reaction Biology Corp
Method in brief: as §1

DCAMKL1 = biological target: T3, DCAMKL1 (Homo sapiens, UniProt O15075)
T3 construct: purchased Reaction Biology Corp
T3 sequence (O15075 1-740): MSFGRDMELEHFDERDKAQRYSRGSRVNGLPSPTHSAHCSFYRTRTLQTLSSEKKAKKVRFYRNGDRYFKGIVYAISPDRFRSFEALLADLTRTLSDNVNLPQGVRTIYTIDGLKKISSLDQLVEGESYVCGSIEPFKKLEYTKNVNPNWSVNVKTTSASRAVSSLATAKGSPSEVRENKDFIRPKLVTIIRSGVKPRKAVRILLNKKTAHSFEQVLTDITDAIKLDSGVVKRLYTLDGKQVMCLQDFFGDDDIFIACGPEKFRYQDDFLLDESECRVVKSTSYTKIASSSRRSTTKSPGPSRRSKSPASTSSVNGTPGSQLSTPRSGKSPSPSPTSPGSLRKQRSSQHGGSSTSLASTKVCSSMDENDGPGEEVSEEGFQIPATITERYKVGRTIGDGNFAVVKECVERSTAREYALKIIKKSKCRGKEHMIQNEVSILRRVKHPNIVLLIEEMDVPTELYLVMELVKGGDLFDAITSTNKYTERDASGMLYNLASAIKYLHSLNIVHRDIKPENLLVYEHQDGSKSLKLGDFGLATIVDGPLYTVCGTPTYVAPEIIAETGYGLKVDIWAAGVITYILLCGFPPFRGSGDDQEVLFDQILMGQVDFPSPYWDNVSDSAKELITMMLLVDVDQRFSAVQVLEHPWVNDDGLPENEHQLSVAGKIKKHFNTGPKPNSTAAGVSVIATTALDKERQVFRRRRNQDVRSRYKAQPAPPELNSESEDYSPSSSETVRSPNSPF
Method in brief: as §1

PLK3 = biological target: T4, PLK3 (Homo sapiens, UniProt Q9H4B4)
T4 construct: purchased Reaction Biology Corp
Method in brief: as §1

PBK/TOPK = biological target: T5, PBK/TOPK (Homo sapiens, UniProt Q96KB5)
T5 construct: purchased Reaction Biology Corp
T5 sequence (Q96KB5 1-322): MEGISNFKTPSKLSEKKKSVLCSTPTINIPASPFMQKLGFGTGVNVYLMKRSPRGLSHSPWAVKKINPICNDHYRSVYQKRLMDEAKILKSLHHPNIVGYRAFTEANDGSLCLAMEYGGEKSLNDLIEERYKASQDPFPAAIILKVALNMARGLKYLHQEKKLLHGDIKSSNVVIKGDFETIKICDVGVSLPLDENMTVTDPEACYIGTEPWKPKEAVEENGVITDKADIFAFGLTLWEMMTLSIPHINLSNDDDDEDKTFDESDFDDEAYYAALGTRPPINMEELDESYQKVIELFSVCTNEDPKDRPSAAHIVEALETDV
Method in brief: as §1

MSSK1/STK23 = biological target: T6, MSSK1/STK23 (Homo sapiens, UniProt Q9UPE1)
T6 construct: purchased Reaction Biology Corp
Method in brief: as §1

FLT1/VEGFR1 = biological target: T7, FLT1/VEGFR1 (Homo sapiens, UniProt P17948)
T7 construct: purchased Reaction Biology Corp
Method in brief: as §1

PKCb2 = biological target: T8, PKCb2 (Homo sapiens, UniProt P05771)
T8 construct: purchased Reaction Biology Corp
Method in brief: as §1

TRKB = biological target: T9, TRKB (Homo sapiens, UniProt Q16620)
T9 construct: purchased Reaction Biology Corp
Method in brief: as §1

PKA = biological target: T10, PKA (Homo sapiens, UniProt P17612)
T10 construct: purchased Reaction Biology Corp
Method in brief: as §1

ARK5/NUAK1 = biological target: T11, ARK5/NUAK1 (Homo sapiens, UniProt O60285)
T11 construct: purchased Reaction Biology Corp
T11 sequence (O60285 1-661): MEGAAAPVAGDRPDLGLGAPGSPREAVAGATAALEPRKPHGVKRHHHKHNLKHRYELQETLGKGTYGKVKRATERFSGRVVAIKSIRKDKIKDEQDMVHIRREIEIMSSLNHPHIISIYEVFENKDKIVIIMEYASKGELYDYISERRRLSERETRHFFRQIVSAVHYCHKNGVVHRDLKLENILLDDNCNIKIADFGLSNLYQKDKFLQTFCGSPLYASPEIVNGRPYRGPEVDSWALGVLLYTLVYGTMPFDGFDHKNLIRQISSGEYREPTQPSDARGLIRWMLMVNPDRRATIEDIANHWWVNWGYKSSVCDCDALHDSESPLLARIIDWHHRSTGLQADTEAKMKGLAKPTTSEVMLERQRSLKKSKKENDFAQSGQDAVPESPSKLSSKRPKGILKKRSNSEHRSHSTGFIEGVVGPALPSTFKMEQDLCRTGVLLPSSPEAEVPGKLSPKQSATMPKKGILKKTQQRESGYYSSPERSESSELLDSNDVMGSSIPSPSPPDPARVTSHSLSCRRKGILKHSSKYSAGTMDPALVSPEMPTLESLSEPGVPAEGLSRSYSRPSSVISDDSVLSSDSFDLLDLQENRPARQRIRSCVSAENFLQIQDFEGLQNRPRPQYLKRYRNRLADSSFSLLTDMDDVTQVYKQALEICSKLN
Method in brief: as §1

CDK2/cyclin E = biological target: T12, CDK2/cyclin E (Homo sapiens, UniProt P24941)
T12 construct: purchased Reaction Biology Corp
Method in brief: as §1

RIPK3 = biological target: T13, RIPK3 (Homo sapiens, UniProt Q9Y572)
T13 construct: purchased Reaction Biology Corp
Method in brief: as §1

[1] = read-out: % Enzyme Activity (relative to DMSO controls) AVG
[2] = read-out: % Enzyme Activity (relative to DMSO controls) Data 1
[3] = read-out: % Enzyme Activity (relative to DMSO controls) Data 2

T6 sequence (Q9UPE1 whole entry): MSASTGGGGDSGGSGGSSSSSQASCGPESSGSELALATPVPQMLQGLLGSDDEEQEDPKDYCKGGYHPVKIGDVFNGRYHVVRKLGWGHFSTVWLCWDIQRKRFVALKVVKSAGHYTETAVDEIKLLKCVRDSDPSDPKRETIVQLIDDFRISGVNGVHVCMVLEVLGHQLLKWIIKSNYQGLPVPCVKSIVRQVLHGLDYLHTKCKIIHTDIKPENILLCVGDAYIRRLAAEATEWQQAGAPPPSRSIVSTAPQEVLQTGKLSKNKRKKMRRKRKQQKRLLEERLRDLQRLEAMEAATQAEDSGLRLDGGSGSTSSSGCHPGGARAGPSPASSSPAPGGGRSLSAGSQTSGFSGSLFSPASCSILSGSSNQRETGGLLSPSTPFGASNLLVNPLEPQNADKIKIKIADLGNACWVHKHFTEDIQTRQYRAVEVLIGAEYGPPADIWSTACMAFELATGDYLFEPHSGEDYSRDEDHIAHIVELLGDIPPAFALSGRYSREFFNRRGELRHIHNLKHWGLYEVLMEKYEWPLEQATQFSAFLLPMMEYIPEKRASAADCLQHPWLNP
T2 sequence (P36894 24-532): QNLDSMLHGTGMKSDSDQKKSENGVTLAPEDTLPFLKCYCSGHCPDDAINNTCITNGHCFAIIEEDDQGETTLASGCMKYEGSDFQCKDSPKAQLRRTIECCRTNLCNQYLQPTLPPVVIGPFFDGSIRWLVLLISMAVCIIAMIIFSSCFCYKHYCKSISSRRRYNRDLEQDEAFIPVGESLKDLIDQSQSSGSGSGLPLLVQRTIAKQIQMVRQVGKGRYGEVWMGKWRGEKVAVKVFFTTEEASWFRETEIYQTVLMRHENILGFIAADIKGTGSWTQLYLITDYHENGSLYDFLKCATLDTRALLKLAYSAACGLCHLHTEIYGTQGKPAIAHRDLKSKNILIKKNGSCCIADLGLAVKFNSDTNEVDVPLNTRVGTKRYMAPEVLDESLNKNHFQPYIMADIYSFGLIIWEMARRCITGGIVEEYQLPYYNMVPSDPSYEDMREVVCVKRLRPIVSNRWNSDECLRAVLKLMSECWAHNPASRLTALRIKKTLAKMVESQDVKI
T9 sequence (Q16620 32-822): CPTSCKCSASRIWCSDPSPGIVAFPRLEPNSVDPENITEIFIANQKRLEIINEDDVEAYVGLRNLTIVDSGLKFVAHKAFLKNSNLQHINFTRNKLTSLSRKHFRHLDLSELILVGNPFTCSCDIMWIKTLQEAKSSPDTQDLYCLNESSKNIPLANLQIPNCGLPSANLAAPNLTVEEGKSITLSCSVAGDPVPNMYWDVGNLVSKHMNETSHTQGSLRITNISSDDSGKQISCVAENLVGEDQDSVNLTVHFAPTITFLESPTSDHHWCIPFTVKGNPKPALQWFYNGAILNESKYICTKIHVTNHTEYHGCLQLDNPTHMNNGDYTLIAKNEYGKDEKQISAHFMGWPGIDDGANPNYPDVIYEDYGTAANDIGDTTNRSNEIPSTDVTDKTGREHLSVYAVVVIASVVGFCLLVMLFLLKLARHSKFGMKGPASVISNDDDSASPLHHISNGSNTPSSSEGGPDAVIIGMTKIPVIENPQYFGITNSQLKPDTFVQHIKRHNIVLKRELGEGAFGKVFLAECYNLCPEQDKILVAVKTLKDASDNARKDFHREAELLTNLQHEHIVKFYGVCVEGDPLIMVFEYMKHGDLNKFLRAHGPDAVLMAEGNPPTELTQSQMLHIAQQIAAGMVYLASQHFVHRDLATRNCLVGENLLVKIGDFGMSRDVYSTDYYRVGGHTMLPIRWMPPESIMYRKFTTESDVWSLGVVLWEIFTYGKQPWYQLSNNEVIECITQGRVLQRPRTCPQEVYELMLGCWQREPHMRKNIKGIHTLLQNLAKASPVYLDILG
T4 sequence (Q9H4B4 whole entry): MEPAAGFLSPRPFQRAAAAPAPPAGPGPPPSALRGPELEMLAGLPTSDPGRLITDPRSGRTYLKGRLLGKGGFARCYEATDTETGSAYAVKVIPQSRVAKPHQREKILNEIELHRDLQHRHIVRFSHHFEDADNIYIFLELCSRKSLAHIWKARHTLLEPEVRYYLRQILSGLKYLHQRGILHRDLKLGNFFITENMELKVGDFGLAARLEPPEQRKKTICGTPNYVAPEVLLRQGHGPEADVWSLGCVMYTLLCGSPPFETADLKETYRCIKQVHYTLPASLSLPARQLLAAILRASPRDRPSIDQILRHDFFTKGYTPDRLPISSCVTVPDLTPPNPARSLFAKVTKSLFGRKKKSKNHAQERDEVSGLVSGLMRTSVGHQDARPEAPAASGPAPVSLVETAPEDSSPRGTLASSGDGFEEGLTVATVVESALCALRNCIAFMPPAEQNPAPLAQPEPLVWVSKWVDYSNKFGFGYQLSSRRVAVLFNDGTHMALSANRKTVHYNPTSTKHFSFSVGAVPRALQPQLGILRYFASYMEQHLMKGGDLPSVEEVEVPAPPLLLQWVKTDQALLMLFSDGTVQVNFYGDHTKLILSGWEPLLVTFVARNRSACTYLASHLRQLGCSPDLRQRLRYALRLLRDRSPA
T13 sequence (Q9Y572 whole entry): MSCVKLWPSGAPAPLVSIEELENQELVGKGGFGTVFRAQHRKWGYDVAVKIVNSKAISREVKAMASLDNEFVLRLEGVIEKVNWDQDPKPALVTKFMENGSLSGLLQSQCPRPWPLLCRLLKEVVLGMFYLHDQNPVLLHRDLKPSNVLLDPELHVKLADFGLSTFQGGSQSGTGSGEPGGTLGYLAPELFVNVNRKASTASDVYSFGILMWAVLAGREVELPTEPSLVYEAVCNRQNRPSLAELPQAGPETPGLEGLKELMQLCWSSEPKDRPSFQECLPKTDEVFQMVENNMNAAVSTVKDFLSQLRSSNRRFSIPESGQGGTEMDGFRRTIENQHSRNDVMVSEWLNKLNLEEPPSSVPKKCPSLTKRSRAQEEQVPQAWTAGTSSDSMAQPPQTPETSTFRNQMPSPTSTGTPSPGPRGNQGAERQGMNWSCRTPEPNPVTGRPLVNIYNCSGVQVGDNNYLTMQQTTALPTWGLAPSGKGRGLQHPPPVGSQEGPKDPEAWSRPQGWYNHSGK
T8 sequence (P05771 1-673 isoform P05771-2): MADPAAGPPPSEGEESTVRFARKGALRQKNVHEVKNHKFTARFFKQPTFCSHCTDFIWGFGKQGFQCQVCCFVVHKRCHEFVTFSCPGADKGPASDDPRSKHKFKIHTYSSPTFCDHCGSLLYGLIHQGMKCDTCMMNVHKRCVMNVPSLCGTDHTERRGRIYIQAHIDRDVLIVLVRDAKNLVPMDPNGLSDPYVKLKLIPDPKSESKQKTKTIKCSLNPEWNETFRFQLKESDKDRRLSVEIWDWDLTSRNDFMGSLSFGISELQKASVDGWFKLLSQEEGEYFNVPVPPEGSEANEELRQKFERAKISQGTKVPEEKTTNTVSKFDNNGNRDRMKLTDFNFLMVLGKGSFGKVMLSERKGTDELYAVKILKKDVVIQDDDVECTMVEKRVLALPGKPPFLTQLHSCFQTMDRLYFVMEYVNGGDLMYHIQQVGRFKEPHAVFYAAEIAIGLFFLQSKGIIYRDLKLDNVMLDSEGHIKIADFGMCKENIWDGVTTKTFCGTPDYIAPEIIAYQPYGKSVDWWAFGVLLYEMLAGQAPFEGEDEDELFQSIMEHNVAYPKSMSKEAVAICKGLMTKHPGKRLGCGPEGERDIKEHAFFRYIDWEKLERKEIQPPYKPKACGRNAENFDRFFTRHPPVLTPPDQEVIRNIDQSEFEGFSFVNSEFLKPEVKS

`CC(C)(C)C(=O)N1N=CC[C@H]1c1ccccc1` [GSK′963] showed a remaining activity at 10 µM (PKCa; [1]) of 96.9%, a remaining activity at 10 µM (PKCa; [2]) of 95.7% and a remaining activity at 10 µM (PKCa; [3]) of 98%. It also gave a remaining activity at 10 µM (ALK3/BMPR1A; [1]) of 101%, a remaining activity at 10 µM (ALK3/BMPR1A; [2]) of 103% and a remaining activity at 10 µM (ALK3/BMPR1A; [3]) of 99.8%. For the same compound, the remaining activity at 10 µM (DCAMKL1; [1]) was 92.5%, the remaining activity at 10 µM (DCAMKL1; [2]) was 96.2% and the remaining activity at 10 µM (DCAMKL1; [3]) was 88.8%. It also gave a remaining activity at 10 µM (PLK3; [1]) of 92.5%, a remaining activity at 10 µM (PLK3; [2]) of 95.5% and a remaining activity at 10 µM (PLK3; [3]) of 89.5%. It also gave a remaining activity at 10 µM (PBK/TOPK; [1]) of 104%, a remaining activity at 10 µM (PBK/TOPK; [2]) of 103% and a remaining activity at 10 µM (PBK/TOPK; [3]) of 105%. The remaining activity at 10 µM (MSSK1/STK23; [1]) was 107%, the remaining activity at 10 µM (MSSK1/STK23; [2]) was 108% and the remaining activity at 10 µM (MSSK1/STK23; [3]) was 105%. The remaining activity at 10 µM (FLT1/VEGFR1; [1]) was 107%, the remaining activity at 10 µM (FLT1/VEGFR1; [2]) was 106% and the remaining activity at 10 µM (FLT1/VEGFR1; [3]) was 107%. It also gave a remaining activity at 10 µM (PKCb2; [1]) of 105%, a remaining activity at 10 µM (PKCb2; [2]) of 105% and a remaining activity at 10 µM (PKCb2; [3]) of 106%. For the same compound, the remaining activity at 10 µM (TRKB; [1]) was 101%, the remaining activity at 10 µM (TRKB; [2]) was 101% and the remaining activity at 10 µM (TRKB; [3]) was 100%. For the same compound, the remaining activity at 10 µM (PKA; [1]) was 110%, the remaining activity at 10 µM (PKA; [2]) was 112% and the remaining activity at 10 µM (PKA; [3]) was 107%. It also gave a remaining activity at 10 µM (ARK5/NUAK1; [1]) of 98%, a remaining activity at 10 µM (ARK5/NUAK1; [2]) of 95.8% and a remaining activity at 10 µM (ARK5/NUAK1; [3]) of 100%. For the same compound, the remaining activity at 10 µM (CDK2/cyclin E; [1]) was 95.2%, the remaining activity at 10 µM (CDK2/cyclin E; [2]) was 95.7% and the remaining activity at 10 µM (CDK2/cyclin E; [3]) was 94.7%. It also gave a remaining activity at 10 µM (RIPK3; [1]) of 99.3%, a remaining activity at 10 µM (RIPK3; [2]) of 100% and a remaining activity at 10 µM (RIPK3; [3]) of 98.7%.
